Measured values: patent publication US11866695B2, “Methods and systems and related compositions for mixtures separation with a solid matrix” (CALIFORNIA INSTITUTE OF TECHNOLOGY, priority 2019, dated 2024)
Entries after “also recorded” stand apart in the source; their conditions may differ.

Legend:
Type in all cases: biochemical
[1] = test system: LAMP spiked with 5×104 copies λ phage DNA; test: TPW screen with LAMP (1 μL wash candidate added to 10 μL reaction); conditions: 1 μL candidate in 11 μL total
Method: LAMP primers (Integrated DNA Technologies (IDT), Coralville, Iowa, USA) were designed, ordered, and added at NEB's recommended concentrations of […] FIP/BIP, 0.2μM F3/B3, and […] LoopF/B.
Each 96-well plate was sealed and briefly spun. […] Time-to-positive (TTP) was determined when the software's automated baseline corrected fluorescence reached 1000 RFU.
Criterion 1a was investigated directly by performing qPCR and LAMP reactions. Reactions were spiked with λ phage DNA, diluted up to 10 μL, and an additional 1 μL of different wash buffer candidates was added to a total of 11 μL. […] As an experimental control, a “No Additive” condition was tested, which was a 10 μL reaction with optimized reaction conditions and no inhibitors. To control for the effects of a 1 μL dilution on the reaction, a “Water” condition which was an 11 μL reaction with no inhibitors was also tested.

[2] = test system: λ phage DNA; test: Zymo Quick-DNA/RNA MagBead extraction with air dry replaced by TPW, LAMP; conditions: 10× dilution of eluent into LAMP
Method: LAMP reactions contained the following concentrations of reagents: 1× Isothermal Amplification Buffer (20 mM Tris-HCl pH 8.8, 10 mM (NH4)2SO4, 50 mM KCl, 5 mM MgSO4, 0.1% Tween-20, B0537S, NEB, Ipswich, Mass., USA), an additional 2 mM MgSO4 (B1003S, NEB), 1.4 mM deoxynucleotide mix (N0447L or N0446S, NEB), […] Invitrogen Syto-9 (S34854, Thermo Fisher Scientific), […] Invitrogen bovine serum albumin (15561020, Thermo Fisher Scientific), 320 U/mL WarmStart Bst 2.0 (M0538L, NEB), and were supplemented with nuclease-free water (not DEPC-Treated, 4387936, Thermo Fisher Scientific) up to 10 μL. LAMP primers (Integrated DNA Technologies (IDT), Coralville, Iowa, USA) were designed, ordered, and added at NEB's recommended concentrations of […] FIP/BIP, 0.2μM F3/B3, and […] LoopF/B.
Each 96-well plate was sealed and briefly spun. Heating and real-time imaging were performed on the Bio-Rad CFX-96 Touch Real-Time PCR Detection System (1855195, Bio-Rad). Each 96-well plate was cooled to 12° C. for 2 min, held at 68° C. for 47 min with 35-second fluorescence read intervals, and a melt-curve analysis was performed. For the E. coli DNA dilution experiment, the 68° C. step was held for 105 min. Time-to-positive (TTP) was determined when the software's automated baseline corrected fluorescence reached 1000 RFU.
The Zymo Quick-DNA/RNA Viral MagBead (R2140) was tested. […]

[3] = test system: LAMP reaction mix; test: 3-step Zymo ZR extraction with viral wash buffer replaced, LAMP with 2× dilution of eluent; conditions: wash replaces viral wash buffer; 5 μL eluent in 10 μL
Method: Three different silica-column kits were tested, including: Zymo ZR Viral DNA/RNA Kit (outdated protocol, D7021), Zymo Quick-DNA/RNA Kit (updated protocol, D7021), and the QIAquick PCR Purification Kit (28104, Qiagen). For all silica-column kits, fresh collection tubes were used after each spin and centrifugation speeds were set to 16,000×g. Centrifugation was performed on either an Eppendorf 5415D centrifuge (Eppendorf, Hauppauge, N.Y., USA) or a Thermo Fisher Scientific AccuSpin Micro 17R centrifuge (13-100-676). It was noted that the QIAquick protocol calls for 17,900×g, but instead was run at 16,000×g which was the max speed for the Eppendorf 5415D. For both Zymo kits, 750 μL lysed sample was prepared by mixing 125 μL sample with 125 μL Zymo 2×DNA/RNA Shield and 500 μL Viral DNA/RNA Buffer. For the Zymo ZR Viral DNA/RNA kit, 750 μL lysed sample was centrifuge for 1 min, 500 μL Zymo Viral Wash Buffer was centrifuged for 2 min, and 50 μL nuclease-free water was centrifuged for 30 s into a clean 1.5 mL tube. Optionally, either a dry spin or 300 μL TPW was centrifuged for 2 min in between the Viral Wash Buffer and elution steps. […] For the QIAquick PCR Purification Kit, 125 μL sample was mixed with 625 μL Buffer PB without indicator. 750 μL lysed sample was centrifuged for 30 s, followed by 750 μL Buffer PE for 30 s, a dry spin for 1 min, and 50 μL nuclease-free water for 1 min. Optionally, the dry spin was skipped or the dry spin was replaced with a 300 μL TPW and centrifuged for 1 min.
Exchanging the ethanol wash for a TPW could be useful for applications in which the starting sample is already relatively pure. For this experiment, Zymo ZR kit was used, which has three centrifugation steps: lysis (sample, shield, lysis buffer), wash (ethanol-based viral wash buffer), and elution (water). […] An aliquot of 5 μL of the resulting eluent was added to 5 μL of LAMP reaction mix and amplified at 68° C. Eluent from the manufacturer protocol amplified in 5.7 min. […]

Compound | Avg TTP ([1]; N.D. = not detected within 40 min) [min] | ΔTTP ([1]; minus the No additive control) [min] | TTP improvement [2] [min] | LAMP performance of eluent [3]
CCCCCCCCCCCO [1-undecanol] | 6.70 | 0.16 | 0.7 | 
CCO [Ethanol, ethanol] |  |  |  | slightly outperforms the viral wash buffer; also recorded: performed slightly better (earlier TTP) than the viral wash buffer
